# Test results reported in patent US10905680B2, “Methods of treatment for cholestatic and fibrotic diseases” (Genfit, priority 2016, dated 2021).
# What was measured:
# [1] = test system: Normal Human Dermal Fibroblasts (NHDF); test: ACTA2 transcripts in TGFβ1-induced normal human dermal fibroblasts (RT-qPCR); format: cell-based; details: TGFβ1 10 ng/ml, 24 hours
# Experimental: Serum-deprived normal human dermal fibroblasts (NHDF) were preincubated for 1 hour with NTZ (A) or TZ (B) before the activation with TGFβ1 (10 ng/ml). After 24 hours of incubation, the expression of ACTA2 was measured by RT-qPCR. The expression values were then transformed as fold induction over TGFβ1 control. Data are presented as mean (triplicates)±SEM (Standard Error of Mean). Statistical analyses were performed by a student's t-test (for TGFβ-stimulated vs unstimulated conditions); [#: p<0.05; ## p<0.01; ### p<0.001] or by aone-way ANOVA followed by Bonferroni post-hoc tests (for compound-treated samples vs TGFβ1 control). [*: p<0.05; **: p<0.01; ***: p<0.001], using GraphPad Prism 7.04 software.
# Normal Human Dermal Fibroblasts (NHDF) (Lonza) were cultured in Fibroblast Basal Medium (FBM) (Lonza cat # CC-3131) supplemented with FGM-2 SingleQuots™ Kit (Lonza cat # CC-3132) and 2% FBS. […]
# Quantitative PCR was then carried out using the MyiQ Single-Color Real-Time PCR Detection System (Biorad). […]
# For each gene, the standard curves were drawn by selecting the best points (at least three points) in order to have PCR reaction efficiency close to 100% and a correlation coefficient close to 1. Expression levels were determined using the standard curve equation for both the housekeeping gene and the target gene (taking into account the specific PCR efficiency of each target gene).
# [2] = test system: human renal interstitial fibroblasts (HRIF); test: TGFβ1-induced expression of α-SMA protein in human renal fibroblasts (ELISA); format: cell-based; details: TGFβ1 3 ng/ml, 48 hours
# Experimental: Serum-deprived Human Renal Interstitial Fibroblasts (HRIF) were preincubated for 1 hour with NTZ (A) or TZ (B) before the activation with the profibrogenic cytokine TGFβ1 (3 ng/ml). After 48 hours of incubation, the expression of α-SMA was measured by ELISA. The obtained values were normalized over TGFβ1 control. Data are presented as mean (quadruplicates)±SEM (Standard Error of Mean). […] For the activation experiments with TGFβ1, the HRIF were plated at a density of 6.5×10^3 cells per well in 384-well plates. The next day, cell culture medium was removed, and cells were washed with PBS (Invitrogen cat #14190). HRIF were deprived for 24 hours in serum-free, and FGS-free medium. For the treatments with NTZ or TZ, the serum-deprived HRIF were preincubated for 1 hour with the compounds followed by addition of the profibrogenic stimuli TGFβ1 (PeproTech cat #100-21, 3 ng/mL) in serum-free, -FGS-free medium for an additional 48 hour period. Finally, the cells were washed with PBS (Invitrogen, cat #14190) before the addition of 30 μl of lysis buffer (CelLytic™ MT reagent; Sigma #C3228). Plates were then incubated for 30 min on ice using a plate shaker, and subsequently stored at −20° C. The level of α-SMA was measured using a Sandwich ELISA. Briefly, the wells of an ELISA plate were first coated with the capture antibody (mouse monoclonal anti-ACTA2, Abnova) at 4° C. overnight. […]
smiles,measurement,setting,value
"O=C(Nc1ncc([N+](=O)[O-])s1)c1ccccc1O [TZ, 2-hydroxy-N-(5-nitro-2-thiazolyl)benzamide]",antifibrotic effects (ACTA2 transcripts) in TGFβ-activated normal human dermal fibroblasts,[1],significant and dose-dependent antifibrotic effects
same,antifibrotic effects (α-SMA) in TGFβ-activated human renal interstitial fibroblasts,[2],significant and dose-dependent antifibrotic effects
